Source: patent US12576055B2, “Disease detection and treatment based on trimethyl-lysine levels” (The Cleveland Clinic Foundation, priority 2018, dated 2026)

How the values were obtained:
[1] = tested on: mouse cecal, colonic and small bowel microbiota; assay: Gut microbial TMA lyase activity assay, d9-TMA production in anaerobic cultures of mouse intestine segments
Procedure: (§1) TMA lyase activity was monitored by quantifying d9-TMA production from d9(trimethyl) labeled potential nutrient precursors by stable isotope dilution LC/MS/MS analysis. Briefly, TMA lyase activity was typically quantified by incubating the indicated enzyme source (C57BL/6J female mouse intestine segments or human feces from healthy vegans/vegetarians and omnivores). Reactions were initiated by the addition of d9-labeled substrates (d9-TML, d9-carnitine or d9-choline) incubated under anaerobic conditions. Following 20 hours incubation at 37° C., reactions were halted, [^13C3,^15N]-TMA (Sigma Chemicals, St. Louis, MO) in 0.2 N formic acid was added as an internal standard, followed by immediate extraction of TMA isotopologues into the organic layer produced following mixing with successive additions of 2 ml hexane, 1 ml butanol and 0.2 ml 1N NaOH (to deprotonate the TMA isotopologues). Mixtures were then vortexed, centrifuged, and the upper hexane layer was transferred to a 12×75 mm PTFE capped threaded glass tube, acidified with the addition of 200 μl of 0.2 N formic acid, vortexed and the organic and aqueous layers were separated by centrifugation. The now protonated TMA isotopologues were recovered in the aqueous phase for quantitation by stable isotope dilution LC/MS/MS analysis. Sample aliquots were injected onto a reverse phase C18 HPLC column (2.0×150 mm, 5 μm, Phenomenex Prodigy (Phenomenex)) eluted at a flow rate of 0.2 ml/min and resolved using a linear gradient between 0.2% formic acid in water and 0.2% formic acid in acetonitrile/methanol (95:5, v/v). HPLC column effluent was introduced into an AB Sciex 5500 QTRAP mass spectrometer using electrospray ionization in the positive-ion mode. Both d9-TMA and [^13C3,^15N]TMA were monitored using multiple reaction monitoring of parent and characteristic daughter ions: m/z 69→49 for d9-TMA; and m/z 64→47 for [^13C3,^15N]TMA. Reactions without microbial enzyme source (tissues, cells, cell lysates, or isolated proteins) were used as blank.

[2] = tested on: human fecal commensals (omnivores and vegans); assay: Gut microbial TMA lyase activity assay, d9-TMA production in human polymicrobial fecal anaerobic cultures; format: in vitro ADME
Procedure: as §1
(§2) Human feces and all bacteria including individual strain and fresh combined 68 strains were grown with 100 μM d9-TML or d9-choline (as a positive control) in complex reduced medium in a Coy anaerobic chamber (5% H2, 20% CO2, and 75% N2, 37° C.) for 0-4 days as previously described (27). The reaction was stopped by adding 6N HCl to samples (1:100 dilution to 60 mM final), and freezing at −80° C. until d9-TMA extraction and analysis by LC-MS/MS, as described in Methods above.

[3] = tested on: carotid artery thrombus formation; assay: In vivo carotid artery thrombosis model (FeCl3 induced injury); design: species or system C57BL/6J mice; conditions: 1% supplemented diet for 11 days
Procedure: Conventional mice (female, 10 weeks old, C57BL/6J, 10 per treatment group) were placed on chemically defined diets for 11 days. Mice were assessed for in vivo thrombosis potential with the common carotid injury model by application of 10% FeCl3 for 1 min (11, 38). […] The left carotid artery was exposed and injured by placing a FeCl3 soaked filter paper for one minute. […] Time to cessation of blood flow was determined by visual inspection of computer images of the thrombosis process from 30 seconds to 30 minutes by investigators blinded to mouse treatment group.

[4] = female, C57BL/6J, mouse, in vivo
Procedure: Stable isotope dilution LC/MS/MS was used for quantification of TML, TMAO, TMA, lysine, γ-butyrobetaine and carnitine similar to that described previously (1, 8, 9, 15). For TML standard curves, varying levels of TML were spiked into 20 μl control plasma followed by precipitation with 80 μl methanol containing 0.8 nmol d9-TML. Supernatant was loaded for LC/MS/MS analysis. Analyses were performed using electrospray ionization in positive-ion mode with multiple reaction monitoring of parent and characteristic daughter ions and retention times specific for components monitored. The transitions monitored for TML were mass-to-charge ratio (m/z): m/z 189.1→84.1, 189.1→60.1, and 189.1→130.1. The internal standards (e.g., d9-trimethyl-TML, d9-trimethyl-TMAO) were added to plasma before protein precipitation. Various concentrations of analytes and a fixed amount of internal standards were spiked into control plasma to prepare the calibration curves for quantification of plasma analytes. Their concentrations in human and mouse plasma samples were determined by high-performance liquid chromatography with a Shimadzu 8050 triple quadrupole mass spectrometer interfaced to a Shimadzu Nexera Ultra High Performance Liquid Chromatograph (UHPLC) system.
Conventional mice (female, 10 weeks old, C57BL/6J, 10 per treatment group) were placed on chemically defined diets for 11 days.

[5] = Oral (gastric gavage) d9-TML or d9-choline isotope tracer challenge, serial plasma levels by LC/MS/MS
Procedure: Supernatant was loaded for LC/MS/MS analysis.
Whole blood (50 μl) was collected via the saphenous vein from C57BL/6J (Jackson #0664) female mice prior to gavage for the measurement of baseline analyte levels. Mice were administered an oral dose of stable isotope-labelled TML or choline. The gastric gavage consisted of 150 μl of either 150 mM synthetic d9-TML or 150 mM choline-N,N,N-trimethyl-d9 (d9-choline, Cambridge Isotope Lab), followed by post-gavage blood collection at the indicated times. Where indicated, gut microbiota were suppressed in mice by placement of a cocktail of poorly absorbed antibiotics in drinking water for 3 weeks prior to the d9-TML challenge, as previously described (1, 19). Quantification of the abundance of native and isotope-labeled forms of TML, TMA and TMAO in mouse plasma was performed using stable-isotope-dilution LC-MS/MS using established methods for TMA and TML (19), and using the parent daughter ion transitions for TML and its internal standard as described above. In additional studies, the role of gut microbiota in TMAO formation from dietary TML was determined in C57BL/6J mice by performance of oral (gavage) d9-TML challenge. Mice were housed in conventional cages in the absence or presence of a cocktail of broad spectrum antibiotics added to the drinking water previously shown to suppress gut microbiota (1,19).

[6] = reference (19); cited from earlier work
[7] = tested on: panel of 68 culturable human commensals; assay: In vitro screening for the conversion of d9-TML to d9-TMA by culturable human commensals; format: in vitro ADME, human gut bacteria
Procedure: as §2

[8] = tested on: cutC/D, yeaX/W, or cntA/B microbial TMA generating enzyme systems; assay: Recombinant microbial TMA lyases expressed in E. coli, d9-TMA production from d9-labeled substrates; format: biochemical; conditions: E. coli transformed with cutC/D
[9] = conventionally reared C57BL/6J mice, gastric gavage 150 μl of 150 mM
[10] = anaerobic culture, 20 hours, 37° C.

Structure (SMILES): [2H]C(O)(CC(=O)[O-])C([2H])([2H])[N+](C)(C([2H])([2H])[2H])C([2H])([2H])[2H] (stereo not shown) [d9-carnitine]
- synthetic capacity of cecal microbiota to generate d9-TMA, higher than that observed with d9-TML [1]: 10 fold
- d9-TMA formed in vegan fecal cultures compared with d9-TML [2]: comparable degree
- production of d9-TMA in polymicrobial fecal cultures from omnivores, greater [2]: > 100 fold

Structure (SMILES): C[N+](C)(C)CCCC[C@H](N)C(=O)O [TML, N6-trimethyl-lysine]
- in vivo thrombosis potential (thrombus formation rate, time to cessation of blood flow) [3]: failed to significantly change
- plasma level of TMAO after 11 days of the indicated diet [4]: 4.5 ± 2.1 µM
- plasma level of TML after 11 days of the indicated diet [4]: 37.0 ± 15.5 µM
- increase in plasma TML levels ([4]; 11 days): ~100 fold

Structure (SMILES): [2H]C([2H])([2H])[N+](CCO)(C([2H])([2H])[2H])C([2H])([2H])[2H] [d9-choline, choline-N,N,N-trimethyl-d9]
- plasma level of isotope labeled precursor compared with d9-TML challenge ([5]; mouse, in vivo): substantially lower
- peak plasma level of d9-TMA, higher than after the same molar amount of oral d9-TML ([5]; mouse, in vivo, po): 30-50 fold
- peak plasma level of d9-TMAO, higher than after the same molar amount of oral d9-TML ([5]; mouse, in vivo, po): 30-50 fold
- synthetic capacity of cecal microbiota to generate d9-TMA, higher than that observed with d9-TML [1]: 1000 fold
- d9-TMA conversion in human fecal cultures, greater than the levels produced from d9-TML [2]: approximately 3 orders of magnitude

Structure (SMILES): C[N+](C)(C)CCO [choline]
- plasma level of TMAO after 11 days of the indicated diet [4]: 90.6 ± 55.1 µM
- plasma level of TML after 11 days of the indicated diet [4]: 0.8 ± 0.4 µM
- rise of plasma TMAO levels ([4]; 11 days): ~20 fold

Structure (SMILES): C[N+](C)(C)CC(=O)O [betaine]
- rate as TMA nutrient precursor, less than choline [6]: about 100 fold

Structure (SMILES): [2H]C([2H])([2H])[N+](CCCCC(N)C(=O)O)(C([2H])([2H])[2H])C([2H])([2H])[2H] (stereo not shown) [d9-TML, [d9-N, N, N-trimethyl] lysine]
- plasma d9-TMAO following d9-TML oral gavage in mice treated with oral antibiotics ([5]; 3 weeks cocktail of poorly absorbed broad-spectrum antibiotics): no detectable
- impact of pretreatment with oral antibiotics on plasma d9-TML levels following oral gavage ([5]; P=0.87): no impact
- plasma level of d9-TMA following oral d9-TML gavage [5, 9]: rose only minimally
- plasma level of d9-TMAO following oral d9-TML gavage [5, 9]: rose only minimally
- time to increase in plasma d9-TML level following ingestion ([5]; oral gavage, C57BL/6J mice): ≤ 1 h
- d9-TMA formation by small bowel microbes [1, 10]: significantly lower but detectable levels
- d9-TMA generation by microbes from cecal and colonic segments [1, 10]: generated d9-TMA
- d9-TML to d9-TMA transformation, feces of omnivores versus vegans ([2]; P<0.04): significantly greater activity than vegans
- overall level of TMA generation from TML in human fecal cultures ([2]; omnivores and vegans, anaerobic): relatively low
- conversion of d9-TML to d9-TMA by eighteen individual members of the human commensal library ([7]; anaerobic, 100 μM): none of these species significantly promoted conversion
- d9-TML to d9-TMA transformation by pool of all 68 species ([7]; prolonged (4 days) incubation, assay limit of detection ~1 nM): virtually no detectable
- conversion into d9-TMA by recombinant microbial TMA generating enzyme systems [8]: none of the known recombinant microbial TMA generating enzyme systems examined supported d9-TML conversion into d9-TMA
